PubChem BioAssay AID863 (NMMLSC, 2007)
Activity calls are given as the source filed them. No rule for the calls is given here.

Molecular target: fMet-Leu-Phe receptor (Homo sapiens) (UniProt P21462)
Assay: FPR antagonists blocking calcium flux, SAR follow-up, U937 cells, fMLFF stimulus, Fluo4, flow cytometry (AID 863)
Settings: FPR-expressing U937 cells, fMLFF-induced Fluo4 calcium flux, 80 s, stronger effect = higher value, concentration not given here

Chain of fMet-Leu-Phe receptor (Homo sapiens) (P21462 whole entry, looked up): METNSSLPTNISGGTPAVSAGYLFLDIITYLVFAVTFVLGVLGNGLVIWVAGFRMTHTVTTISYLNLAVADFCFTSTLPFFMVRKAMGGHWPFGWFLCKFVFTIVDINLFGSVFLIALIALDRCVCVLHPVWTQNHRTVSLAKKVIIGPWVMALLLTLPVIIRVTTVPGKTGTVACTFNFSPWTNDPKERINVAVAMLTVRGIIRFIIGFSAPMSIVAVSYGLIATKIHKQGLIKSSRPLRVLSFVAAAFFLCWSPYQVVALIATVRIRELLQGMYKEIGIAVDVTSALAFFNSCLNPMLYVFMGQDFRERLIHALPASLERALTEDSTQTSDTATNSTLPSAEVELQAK

SMILES	inhibition
Cc1nc2c(-c3ccc(Cl)cc3)c(C(F)(F)F)[nH]n2c(=O)c1Cc1ccccc1	98.1%
COc1ccc(OC)c(C2/C(=C(\O)c3ccccc3)C(=O)C(=O)N2c2cccnc2)c1 (centres undefined)	40.7% (inactive)
COc1ccc(C2C(C(=O)c3cccs3)=C(O)C(=O)N2CCCn2ccnc2)cc1 (centres undefined)	96.9%
CCc1cc2c(=O)c(-c3nc4ccccc4n3C)c(C)oc2cc1OC(C)=O	101%
COc1ccc(C2C(C(=O)c3ccco3)=C(O)C(=O)N2CCN2CCOCC2)c(OC)c1 (centres undefined)	58.1% (inactive)
COc1ccc(-c2c(C(F)(F)F)oc3cc(OC(=O)c4ccco4)ccc3c2=O)cc1OC	93%
COc1ccc(-c2c(C(F)(F)F)oc3cc(OC(=O)c4cccnc4)ccc3c2=O)cc1OC	85.6% (inactive)

Other lines, results leading:

inhibition	SMILES
185%	O=C(Oc1ccc2c(=O)c(-c3ccccc3Cl)c(C(F)(F)F)oc2c1)c1cccs1
81.3% (inactive)	O=C(C1=C(O)C(=O)N(CCc2ccccc2)C1c1ccc(Cl)cc1)c1cccs1 (centres undefined)
98.8%	COc1ccccc1-c1c(C(F)(F)F)oc2cc(OC(=O)c3ccco3)ccc2c1=O
97.5%	COCCN1C(=O)C(=O)/C(=C(/O)c2ccccc2)C1c1cc(OC)ccc1OC (centres undefined)
72.3% (inactive)	COc1ccc(C2C(C(=O)c3cccs3)=C(O)C(=O)N2CCN2CCOCC2)c(OC)c1 (centres undefined)
44% (inactive)	CCCCCCN1C(=O)C(=O)/C(=C(\O)c2ccccc2)C1c1ccc(O)c(OC)c1 (centres undefined)
99.5%	COc1ccc(C2/C(=C(\O)c3ccccc3)C(=O)C(=O)N2CCCn2ccnc2)c(OC)c1 (centres undefined)
